Values joined by “and” are separate entries in the source; they are usually repeats but may differ in a detail not shown here. Identical values can stand only once.
Experiments:
[1] = tested on: SDH D_D129T (strain Flu29); assay: in vitro succinate: Q0/DCPIP activity test, purified mitochondria; assay type: biochemical, Mycosphaerella graminicola; settings: ratio IC50mutant/IC50WT, single determination, FR** (full resistance) = no sufficient inhibition detected at highest inhibitor concentration tested
Experimental: (§1) To explore the sensitivity profiles conferred by amino acid substitutions at the cellular and mitochondrial level, we determined sensitivity towards 4 different compounds for 26 of the identified substitution types both in vivo using liquid culture growth (AE media) and in vitro using purified mitochondria and the succinate: Q0/DCPIP activity test (Table 3). […] Resistance factors (RF) were determined as the ratio IC50mutant/IC50WT. […] Qp site mutations are well known to influence SDH enzyme activity and stability upon catalysis, [13], [38], [41].
(§2) Strains were grown in 1 liter TSM40 units. Cultures were inoculated at 0.05 OD600 nm and grown on a reciprocal shaker (110 rpm, 22°C) for 5 days. Cells were harvested by vacuum filtration and disrupted in liquid nitrogen using a mortar and pestle. Resultant powder was re-suspended to 10% w/v in mitochondrial extraction buffer (10 mM KHPO4 pH7.2; 10 mM KCl, 10 mM MgCl2, 0.5 M sucrose, 0.2 mM EDTA, 2 mM PMSF). Extract was clarified by centrifugation (5,000 g, 4°C for 10 minutes, 2 times), intact mitochondria were then pelleted at 10,000 g for 20 minutes at 4°C. […] This volume was transferred to conical 1.5 ml tubes and re-centrifuged, 10,000 g for 10 minutes at 4°C. […] Mitochondrial suspensions were brought to a final concentration of 10 mg ml^−1 in extraction buffer and stored at −80°C until used.
(§3) Mitochondrial suspensions were incubated at 30°C for 30 minutes in extraction buffer supplemented with 10 mM succinate prior to enzymatic measurements.
(§4) A reaction plate was equilibrated for 10 minutes at 30°C before starting the reaction. DCPIP reduction was conducted at 30°C and monitored at 595 nm using a HTS7000 microtiterplate reader (Perkin Elmer). For calculations a molecular extinction coefficient of ε = 17 mM^−1 cm^−1 was used.
(§5) Inhibitor concentrations ranged between 1 mM and 0.95 nM with uniform 4× dilution factor steps (11 inhibitor concentrations+DMSO control). 96 wells plates were pre equilibrated at reaction temperature (30°C) for 10 minutes before the reactions were started by the addition of 5 µl preactivated M. graminicola mitochondrial suspension. Calculated absorbance slopes (OD/hour) were used for IC50 calculations using Graphpad Prism 5.0 software non linear curve fitting against log inhibitor concentrations.

[2] = tested on: SDH B_P220L (strain Flu75); assay: as above; assay type: biochemical, Mycosphaerella graminicola; settings: ratio IC50mutant/IC50WT, single determination
Experimental: as §1, §2, §3, §4, §5

[3] = tested on: SDH B_R265P (strain Cbx56); assay: as above; assay type: biochemical, Mycosphaerella graminicola; settings: ratio IC50mutant/IC50WT, single determination
Experimental: as §1, §2, §3, §4, §5

[4] = tested on: SDH B_H267Q (strain Bos59); assay: as above; assay type: biochemical, Mycosphaerella graminicola; settings: ratio IC50mutant/IC50WT, single determination
Experimental: as §1, §2, §3, §4, §5

[5] = tested on: SDH B_H267L (strain Cbx29); assay: as above; assay type: biochemical, Mycosphaerella graminicola; settings: ratio IC50mutant/IC50WT, single determination
Experimental: as §1, §2, §3, §4, §5

SDH C_S83G (strain Flu1) = assay: as above; assay type: biochemical, Mycosphaerella graminicola; settings: ratio IC50mutant/IC50WT, single determination
Experimental: as §1, §2, §3, §4, §5

[6] = tested on: SDH B_H267N (strain Cbx96); assay: as above; assay type: biochemical, Mycosphaerella graminicola; settings: ratio IC50mutant/IC50WT, single determination
Experimental: as §1, §2, §3, §4, §5

[7] = tested on: SDH C_A84I (strain Flu21); assay: as above; assay type: biochemical, Mycosphaerella graminicola; settings: ratio IC50mutant/IC50WT, single determination
Experimental: as §1, §2, §3, §4, §5

[8] = tested on: SDH D_D129S (strain Cbx101); assay: as above; assay type: biochemical, Mycosphaerella graminicola; settings: ratio IC50mutant/IC50WT, single determination
Experimental: as §1, §2, §3, §4, §5

[9] = tested on: SDH D_D129E (strain Cbx22); assay: as above; assay type: biochemical, Mycosphaerella graminicola; settings: ratio IC50mutant/IC50WT, single determination
Experimental: as §1, §2, §3, §4, §5

SDH C_N86K (strain Izm7) = assay: as above; assay type: biochemical, Mycosphaerella graminicola; settings: ratio IC50mutant/IC50WT, single determination
Experimental: as §1, §2, §3, §4, §5

[10] = tested on: SDH B_N225I (strain Flu7); assay: as above; assay type: biochemical, Mycosphaerella graminicola; settings: ratio IC50mutant/IC50WT, single determination
Experimental: as §1, §2, §3, §4, §5

[11] = tested on: SDH B_P220T (strain Flu110); assay: as above; assay type: biochemical, Mycosphaerella graminicola; settings: ratio IC50mutant/IC50WT, single determination
Experimental: as §1, §2, §3, §4, §5

[12] = tested on: SDH B_H267Y (strain Cbx28); assay: as above; assay type: biochemical, Mycosphaerella graminicola; settings: ratio IC50mutant/IC50WT, single determination
Experimental: as §1, §2, §3, §4, §5

[13] = tested on: SDH B_N271K (strain Flu33); assay: as above; assay type: biochemical, Mycosphaerella graminicola; settings: ratio IC50mutant/IC50WT, single determination
Experimental: as §1, §2, §3, §4, §5

[14] = tested on: SDH B_N225H (strain Cbx106); assay: as above; assay type: biochemical, Mycosphaerella graminicola; settings: ratio IC50mutant/IC50WT, single determination
Experimental: as §1, §2, §3, §4, §5

[15] = tested on: SDH C_T79I (strain Bos64); assay: as above; assay type: biochemical, Mycosphaerella graminicola; settings: ratio IC50mutant/IC50WT, single determination
Experimental: as §1, §2, §3, §4, §5

[16] = tested on: M. graminicola WT (IPO323); assay: microbe, parasite or virus in culture; assay type: cell-based, Mycosphaerella graminicola
Experimental: as §1
Conidial cells were collected from 4 day old V8 agar plates (cultured at 18°C in the dark) using liquid AE and a cell spreader. Cell density was determined and cells re-suspended to a concentration of 5×10^5 cells ml^−1 in AE media. Sterile 96 wells microtiter plates with lids (Costar) were inoculated with 198 µl of this cell suspension (10^5 cells per well) and 2 µl of inhibitor (100× in DMSO). Final inhibitor concentrations were between 0.95 nM and 1 mM with uniform 4× dilution factor steps (11 inhibitor concentrations+1 DMSO control). Plates were incubated for 6 days at 19°C in the dark before cells were re-suspended and measured for growth (OD600 nm). IC50 values were determined by non linear curve fitting on the basis of measured OD values versus log inhibitor concentrations (GraphPad Prism 5.0 software).

CC(C)C1C2CCC1c1c(NC(=O)c3cn(C)nc3C(F)F)cccc12 (stereo not shown) [Isopyrazam]
Resistance Factors (RFs) in vitro [1]: 4095 and 4095.5 | Resistance Factors (RFs) in vitro [2]: 1.2 | Resistance Factors (RFs) in vitro [3]: 88.3 | Resistance Factors (RFs) in vitro [4]: 34.6 | Resistance Factors (RFs) in vitro [5]: 3248.5 | Resistance Factors (RFs) in vitro (SDH C_S83G (strain Flu1)): 38.6 | Resistance Factors (RFs) in vitro [6]: 11.1 | Resistance Factors (RFs) in vitro [7]: 8.1 | Resistance Factors (RFs) in vitro [8]: 82.5 | Resistance Factors (RFs) in vitro [9]: 145.3 | Resistance Factors (RFs) in vitro (SDH C_N86K (strain Izm7)): 849.9 | Resistance Factors (RFs) in vitro [10]: 7.0 | Resistance Factors (RFs) in vitro [11]: 1.8 | Resistance Factors (RFs) in vitro [12]: 142.6 | Resistance Factors (RFs) in vitro [13]: 89.5 | Resistance Factors (RFs) in vitro [14]: 15.7 | Resistance Factors (RFs) in vitro [15]: 56.4 | Resistance Factors (RFs) in vivo ([16]; None, IPO323, ratio IC50mutant/IC50WT): 1 | IC50 ([16]; Zymoseptoria tritici, WT (IPO323), liquid culture growth, ±S.E. (triplicate), read-out: IC50 in vivo): 0.055 ± 0.002 µM
